# Source: patent publication US7651979B2, “Coordination complexes, and methods for preparing by combinatorial methods, assaying and using the same” (priority 2000, dated 2010)
# Tests used:
# BlaM HeLa cells [1] = assay type: cell-based, human; conditions: for ratio of green to blue fluorescence with increasing concentration: increasing concentrations, FIG. 7, twenty-eight hours; for response of independently synthesized compounds on the BlaM HeLa assay: pure compounds made by non-combinatorial means
# From the text: Another example of a subject assay is termed the CCF2/AM assay. The CCF2/AM dye is an effective assay for the presence of β-lactamase, and thus may be used as a sensor for its transcription. See, for example, U.S. Pat. No. 5,955,604 and WO 9630540. This screen in based on a cellular response that is relatively unique to cisplatin. […] See Sandman et al., Chem. Bio. 6:541-51 (1999). […] In addition, the rapid inhibition of transcription, which occurs prior to apoptosis, may be evaluated over a short period of time. In the BlaM HeLa cell line used herein, the inhibition of transcription coupled with the half-life of ambient β-lactamase results in a one-day screening protocol.
# To screen drug candidates for transcription inhibition activity, genetically modified HeLa cells developed by Aurora Biosciences were exposed to the products from the above parallel reactions. BlaM HeLa cells have been permanently transfected with a vector encoding the 29-kD plasmid encoded TEM-1 β-lactamase from E. coli. This enzyme is the product of the ampicillin resistance gene Amp^r, and is not normally expressed in mammalian cells.
# BlaM HeLa cells were grown up from stock provided by Aurora Biosciences using standard cell culture techniques. This cell line was grown in 10 cm plates by using a modified Dulbecco's Modified Eagle Medium supplemented with 10% fetal bovine serum, 2 mM L-glutamine, 1.0 mM sodium pyruvate, and 0.1 mM non-essential amino acids. Bacterial growth was inhibited through intermittent exposure to […], and selection of the BlaM cells was maintained through the weekly administration of 800 μg/mL G418 (geneticin).
# For plate reader-based experiments, HeLa cells were distributed into black, clear-bottom, 96-well plates (Corning). Nearly confluent 10 cm plates (60-70%) were trypsinized and distributed (100 μL) into the 96-well plates, and allowed to adhere and grow for approximately 18 h. Cells were then washed with 100 μL PBS and provided with fresh media prior to treatment. After treatment, the cells were exposed to the CCF2/AM dye for one hour, and measured for fluorescence on the fmax plate reader. The cellular response to platinum compounds was determined by taking the ratio of the absolute value of measured fluorescence at 530 nm (green) over the absolute value of measured fluorescence at 460 nm (blue). This response is corrected for the background of the microplate.
# Concentration and time-dependent studies were conducted with cisplatin and other pure platinum compounds to determine the response of the cells to platinum chemotherapeutics. For the library screen, cells were exposed to 30 μM of platinum product from the reactions for 28 hours. 72 reactions were screened manually per day, with each compound measured in triplicate. […] After the exposure period the cells were worked up using the CCF2/AM dye protocol, and hits were determined by their response related to that of a cisplatin standard at the same concentration. Initial hits were then rescreened for dose dependent toxicity, over a range from 0 to 75 μM concentrations.
# BlaM HeLa cells [2] = experiment: Northern blotting of RNA from BlaM HeLa cells; assay type: cell-based, human; conditions: 30 μM, 12 hours, FIG. 5
# Experimental: Two 10 cm plates of BlaM HeLa cells were grown to 60-70% confluence, and one treated with 30 μM cisplatin for twelve hours. After this treatment, RNA was extracted from the cells on each plate using an Ambion kit and quantified by UV-visible spectroscopy. The RNA was electrophoresed on an agarose-formaldehyde gel, transferred to a nylon membrane, and crosslinked with a Stratalinker UV device by using standard procedures. This blot was probed with ^32P labeled BlaM fragment from pcDNA-3 (Aurora Biosciences) and 7S RNA from pUC(Amp), and quantified by a Biorad phosphorimager apparatus.
structure (smiles),measurement,setting,value
"N.N.[Cl][Pt][Cl] [trans-DDP, trans-diamminedichloroplatinum(II)]",ratio of green to blue fluorescence with increasing concentration,BlaM HeLa cells [1],no increase
same,cell response over time,"BlaM HeLa cells [1]; time dependence, any of the times measured, FIG. 8",no cell response
CC(C)N.CC(C)N.[Cl-].[Cl-].[Pt+2] [cis-(isopropylamine)2PtCl2],response of independently synthesized compounds on the BlaM HeLa assay,BlaM HeLa cells [1],positive response
"N.N.[Cl][Pt][Cl] [cisplatin, cis-diamminedichloroplatinum(II)]",response (ratio of fluorescence at 530 nm (green) over 460 nm (blue)) in initial screen,"BlaM HeLa cells [1]; 30 μM, 28 hours, triplicate, response above 0.092 considered a hit",0.092
same,ratio of green to blue fluorescence with increasing concentration,BlaM HeLa cells [1],definite increase
same,time at which cell response peaked,"BlaM HeLa cells [1]; time dependence, FIG. 8",approximately 20 hours
same,transcription of both the BlaM vector and control 7S RNA,BlaM HeLa cells [2],decrease in transcription
"[Cl][Pt]([Cl])([NH]C1CCC1)[NH]C1CCC1 [bis-cyclobutylamine species, cis-(cyclobutylamine)2PtCl2]",response of independently synthesized compounds on the BlaM HeLa assay,BlaM HeLa cells [1],positive response
"[NH2][Pt]([Cl])([Cl])[NH]C1CCC1 [ammine-cyclobutylamine complex, cis-ammine(cyclobutylamine)PtCl2]",response of independently synthesized compounds on the BlaM HeLa assay,BlaM HeLa cells [1],positive response
O=[N+]([O-])[O-].[Ag+] [silver nitrate],transcription inhibition response,"BlaM HeLa cells [1]; in media, same concentration as cisplatin (~30 μM), FIG. 9",does not give a transcription inhibition response
Cc1cccnc1N.N.[Cl][Pt][Cl] [cis-ammine(2-amino-3-picoline)dichloroplatinum(II)],response of independently synthesized compounds on the BlaM HeLa assay,BlaM HeLa cells [1],positive response
